For one assay, the system named is CD41+ cells (MKs). The experiment in a line: FRAP of actin-GFP turnover in the contractile ring of MKs. The assay is classed as cell-based. To be noted: Blebbistatin 12.5 μM. How it is done: CD41^+ GFP^+ and CD41^− GFP^+ cells were sorted and the actin turnover was measured in the contractile ring at the end of cytokinesis by FRAP in the dipolar mitosis or endomitosis.

In the next assay the test system is CD41+/CD42+ MKs. The experiment in a line: MK ploidy level by flow cytometry after addition of Blebbistatin. The assay is classed as cell-based. Particulars: added at day 6, 72 h. How it is done:
To investigate the role of myosin II in MK endomitosis, Blebbistatin was used to inhibit its […] during megakaryocytosis. Blebbistatin is added into MK culture at day 6. The ploidy level of CD41^+/CD42^+ MKs was analyzed by flow cytometry 72 h after addition of Blebbistatin.
In general terms: A flow cytometer gives signals particle by particle.

Another assay has as its system H2B-GFP-expressing MKs. The experiment in a line: Real-time video microscopy of endomitosis in H2B-GFP-expressing MKs. Format: cell-based. Particulars: Blebbistatin 25 μM. The protocol:
To check more precisely how myosin II inhibition affects the endomitosis process, we used real-time video microscopy to monitor endomitosis in H2B-GFP-expressing MKs treated with Blebbistatin (25 μM). Endomitotic MK treated with Blebbistatin or without Blebbistatin were filmed in 3 independent experiments.

For the next assay, the system named is CD41+ MK. The experiment in a line: Ploidy level of CD41+ MK cultured from mouse fetal liver Lin- progenitors. Format: cell-based, mice. To be noted: 50 μM blebbistatin, p=0.01, n=3. How it is done:
Thus, the ploidy level of CD41^+ MK was analyzed directly after dissociation the fetal liver as previously described for bone marrow MK (GILLES et al, Blood, 2009). Briefly, the hematopoietic progenitors (Lineage negative, Lin-, cells) were purified from fetal liver of E13.5 by the kit MILTENYI BIOTEC and were cultivated in serum free medium with TPO and stem cell factor (SCF). Blebbistatin was added in the culture just after the purification and ploidy level of CD41^+ cells was analyzed at day 3 of culture.

Regarding `Cc1ccc2c(c1)C(=O)C1(O)CCN(c3ccccc3)C1=N2` (centres unmarked) [Blebbistatin], in the assay with CD41+ cells (MKs) (control 55.7%±12.8, n=8, p=0.01), the “actin-GFP fluorescence recovery in the contractile ring of MKs” value is on record as 42.9%±9.0. Besides, in the assay on CD41+ cells (MKs) (n=8), the “t1/2 of actin-GFP fluorescence recovery” value is 2.94 ± 1.35 s. For the same compound, the mean ploidy with CD41+/CD42+ MKs (25 μM Blebbistatin, control 6.47N, n=3, p=0.015) is on record as 11.27 N; in the assay with CD41+/CD42+ MKs (100 μM Blebbistatin, control 6.28N, n=4, p=0.008) it was 12.13 N. Also, the “furrow ingression of MKs” value in the assay with H2B-GFP-expressing MKs is listed as “almost completely inhibited”. Also, the metaphase-to-anaphase transition result in the assay with H2B-GFP-expressing MKs is on record as “apparently normal”. Further, the mean ploidy level in the assay with CD41+ MK (myh9−/− mice, without 10.40) is on record as 14.72; in the assay on CD41+ MK (wt control mice, without 10.00N), 13.40 N.

The record behind these values is patent publication US20130344494A1, “MYH10 AS A NEW MARKER OF PATHOLOGIES RESULTING FROM RUNX1 INACTIVATION” (priority 2011, published 2013).
